Assay results reported in PubChem BioAssay AID248 (DTP/NCI, 2004).
Where “and” joins values, the source holds several entries; their conditions need not be identical. Identical values can stand only once. Inconclusive results and toxic doses are left out. Cut-off read from the data, not from the text of the source: active = T/C of 150% or more; inactive = T/C below 125%.

System: L1210 leukemia ip in BDF1 mice, survival T/C
Experiment: NCI In Vivo Anticancer Drug Screen. Data for tumor model L1210 Leukemia (intraperitoneal) in B6D2F1 (BDF1) mice
Conditions: endpoint: mean survival time, higher = longer survival
Method in brief: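 Antitumor effect is assessed in tumor-bearing animals. Survival in the compound arm is compared with a vehicle-dosed control arm and expressed as their quotient.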

[1] = dose: 100.0 mg/kg/injection, schedule: Q04DX003 (ip), vehicle: Klucel (hydroxypropylcellulose) (HPC)
[2] = dose: 100.0 mg/kg/injection, schedule: Q01DX009 (ip), vehicle: saline with Tween-80
[3] = dose: 200.0 mg/kg/injection, schedule: Q01DX009 (ip), vehicle: saline with Tween-80
[4] = dose: 400.0 mg/kg/injection, schedule: Q01DX009 (ip), vehicle: saline with Tween-80
[5] = dose: 100.0 mg/kg/injection, schedule: Q01DX001 (ip), vehicle: carboxymethylcellulose (CMC)
[6] = dose: 200.0 mg/kg/injection, schedule: Q01DX001 (ip), vehicle: carboxymethylcellulose (CMC)
[7] = dose: 400.0 mg/kg/injection, schedule: Q01DX001 (ip), vehicle: carboxymethylcellulose (CMC)
[8] = dose: 200.0 mg/kg/injection, schedule: Q04DX002 (ip), vehicle: Klucel (hydroxypropylcellulose) (HPC)
[9] = dose: 400.0 mg/kg/injection, schedule: Q04DX002 (ip), vehicle: Klucel (hydroxypropylcellulose) (HPC)
[10] = dose: 100.0 mg/kg/injection, schedule: Q04DX003 (ip), vehicle: saline with Tween-80
[11] = dose: 400.0 mg/kg/injection, schedule: Q04DX003 (ip), vehicle: saline with Tween-80
[12] = dose: 100.0 mg/kg/injection, schedule: Q01DX009 (ip), vehicle: saline
[13] = dose: 200.0 mg/kg/injection, schedule: Q01DX009 (ip), vehicle: saline
[14] = dose: 25.0 mg/kg/injection, schedule: Q04DX003 (ip), vehicle: Klucel (hydroxypropylcellulose) (HPC)

Measured: T/C

CC(C)N=Cc1ccccc1O.CC(C)N=Cc1ccccc1O.[Co]
inactive: dose: 100.0 mg/kg/injection, schedule: Q01DX009 (ip), vehicle: saline sonified 108 % of control | [1] 103 % of control | dose: 200.0 mg/kg/injection, schedule: Q01DX009 (ip), vehicle: saline sonified 100 % of control | dose: 200.0 mg/kg/injection, schedule: Q04DX003 (ip), vehicle: Klucel (hydroxypropylcellulose) (HPC) 99 % of control | dose: 400.0 mg/kg/injection, schedule: Q04DX003 (ip), vehicle: Klucel (hydroxypropylcellulose) (HPC) 100 % of control

[NH-]CC([NH-])=O.[NH-]CC([NH-])=O.[Ni]
inactive: dose: 3.12 mg/kg/injection, schedule: Q01DX009 (ip), vehicle: water 96 % of control | dose: 6.25 mg/kg/injection, schedule: Q01DX009 (ip), vehicle: water 100 % of control | dose: 12.5 mg/kg/injection, schedule: Q01DX009 (ip), vehicle: water 103 % of control

CC(O)COC(C)C (centres undefined)
inactive: dose: 100.0 mg/kg/injection, schedule: Q01DX001 (ip), vehicle: saline 98 % of control | dose: 200.0 mg/kg/injection, schedule: Q01DX001 (ip), vehicle: saline 89 % of control | dose: 400.0 mg/kg/injection, schedule: Q01DX001 (ip), vehicle: saline 96 % of control

OCc1cscc1-c1cscc1CO
inactive: dose: 100.0 mg/kg/injection, schedule: Q01DX001 (ip), vehicle: saline with Tween-80 97 % of control | dose: 200.0 mg/kg/injection, schedule: Q01DX001 (ip), vehicle: saline with Tween-80 111 % of control | dose: 400.0 mg/kg/injection, schedule: Q01DX001 (ip), vehicle: saline with Tween-80 93 % of control

CCOC(=O)C(C(=O)OCC)C1CCS(=O)(=O)C1 (centres undefined)
inactive: [2] 103 % of control | [3] 96 % of control | [4] 92 % of control

CC(C)(C)c1cccc(Cl)c1O
inactive: dose: 25.0 mg/kg/injection, schedule: Q01DX009 (ip), vehicle: saline with Tween-80 102 % of control | dose: 50.0 mg/kg/injection, schedule: Q01DX009 (ip), vehicle: saline with Tween-80 93 % of control | [2] 96 % of control and 98 % of control

C[CH2][Pb]([CH2]C)([CH2]C)[O]C(=O)CBr
inactive: dose: 0.78 mg/kg/injection, schedule: Q01DX009 (ip), vehicle: Klucel (hydroxypropylcellulose) (HPC) 92 % of control | dose: 1.56 mg/kg/injection, schedule: Q01DX009 (ip), vehicle: Klucel (hydroxypropylcellulose) (HPC) 103 % of control | dose: 3.12 mg/kg/injection, schedule: Q01DX009 (ip), vehicle: Klucel (hydroxypropylcellulose) (HPC) 98 % of control and 92 % of control | dose: 3.12 mg/kg/injection, schedule: Q04DX002 (ip), vehicle: Klucel (hydroxypropylcellulose) (HPC) 93 % of control | dose: 6.25 mg/kg/injection, schedule: Q04DX002 (ip), vehicle: Klucel (hydroxypropylcellulose) (HPC) 90 % of control | dose: 12.5 mg/kg/injection, schedule: Q04DX002 (ip), vehicle: Klucel (hydroxypropylcellulose) (HPC) 98 % of control and 106 % of control

Nc1nc(Cl)nc2c1ncn2Cc1ccccc1
inactive: dose: 9.5 mg/kg/injection, schedule: Q01DX001 (ip), vehicle: other 101 % of control | dose: 19.0 mg/kg/injection, schedule: Q01DX001 (ip), vehicle: other 105 % of control | dose: 38.0 mg/kg/injection, schedule: Q01DX001 (ip), vehicle: other 101 % of control | dose: 75.0 mg/kg/injection, schedule: Q01DX001 (ip), vehicle: other 119 % of control

CC(=O)OC1C(C)OC(n2cnc3c(=O)[nH]cnc32)C1OC(C)=O (centres undefined)
inactive: dose: 50.0 mg/kg/injection, schedule: Q01DX001 (ip), vehicle: carboxymethylcellulose (CMC) 106 % of control | [5] 106 % of control | [6] 108 % of control | [7] 101 % of control

O=C(O)CO/N=C/c1ccccc1Cl
inactive: [8] 98 % of control | [9] 95 % of control

CCCCN(C)c1ccc(N=Nc2cc(Cl)ccc2Cl)cc1
inactive: [10] 98 % of control | [11] 86 % of control

O=C(OCc1ccccc1CN1CCOCC1)c1cccc(Cl)c1
inactive: dose: 100.0 mg/kg/injection, schedule: Q04DX002 (ip), vehicle: Klucel (hydroxypropylcellulose) (HPC) 92 % of control | [8] 92 % of control | [9] 95 % of control

Nc1ncnc2c1ncn2C1OC(CO)C(NC(=S)SCc2ccccc2)C1O (centres undefined)
inactive: dose: 75.0 mg/kg/injection, schedule: Q01DX001 (ip), vehicle: saline 101 % of control | dose: 150.0 mg/kg/injection, schedule: Q01DX001 (ip), vehicle: saline 87 % of control | dose: 300.0 mg/kg/injection, schedule: Q01DX001 (ip), vehicle: saline 101 % of control

O=[Se]1OCc2ccccc2CO1
inactive: dose: 9.5 mg/kg/injection, schedule: Q01DX001 (ip), vehicle: saline with Tween-80 101 % of control | dose: 19.0 mg/kg/injection, schedule: Q01DX001 (ip), vehicle: saline with Tween-80 106 % of control | dose: 38.0 mg/kg/injection, schedule: Q01DX001 (ip), vehicle: saline with Tween-80 113 % of control

CCC[N+]1=C(/C=C/c2ccc3cccnc3c2O)C(C)(C)c2ccccc21
inactive: [5] 95 % of control | [6] 98 % of control | [7] 93 % of control

CCC1CCCCC1(O)CC (centres undefined)
inactive: [12] 96 % of control | [13] 98 % of control

N#CSc1ccc(S(N)(=O)=O)cc1
inactive: dose: 6.25 mg/kg/injection, schedule: Q01DX009 (ip), vehicle: Klucel (hydroxypropylcellulose) (HPC) 94 % of control | dose: 12.5 mg/kg/injection, schedule: Q01DX009 (ip), vehicle: Klucel (hydroxypropylcellulose) (HPC) 92 % of control | dose: 12.5 mg/kg/injection, schedule: Q04DX003 (ip), vehicle: Klucel (hydroxypropylcellulose) (HPC) 100 % of control | dose: 25.0 mg/kg/injection, schedule: Q01DX009 (ip), vehicle: Klucel (hydroxypropylcellulose) (HPC) 106 % of control | [14] 105 % of control

OC(/C=C/c1ccccc1)C(O)/C=C/c1ccccc1 (centres undefined)
inactive: [2] 102 % of control | [3] 104 % of control | [4] 111 % of control

O=C1NC(=O)C(CO)(CO)N1
inactive: dose: 12.5 mg/kg/injection, schedule: Q04DX003 (ip), vehicle: saline 110 % of control | dose: 25.0 mg/kg/injection, schedule: Q04DX003 (ip), vehicle: saline 97 % of control | dose: 50.0 mg/kg/injection, schedule: Q04DX003 (ip), vehicle: saline 100 % of control | [12] 110 % of control | dose: 100.0 mg/kg/injection, schedule: Q04DX003 (ip), vehicle: saline 121 % of control | [13] 107 % of control | dose: 200.0 mg/kg/injection, schedule: Q04DX003 (ip), vehicle: saline 103 % of control | dose: 400.0 mg/kg/injection, schedule: Q01DX009 (ip), vehicle: saline 113 % of control | dose: 400.0 mg/kg/injection, schedule: Q04DX003 (ip), vehicle: saline 105 % of control

CCCCCCCCCCCCOC(=O)OCCCCCCCCCCCC
inactive: [2] 91 % of control | [10] 97 % of control | [3] 91 % of control | dose: 200.0 mg/kg/injection, schedule: Q04DX003 (ip), vehicle: saline with Tween-80 101 % of control | [11] 101 % of control

CN(CCC#N)C(=O)Nc1ccccc1
inactive: dose: 100.0 mg/kg/injection, schedule: Q01DX Z (ip), vehicle: methylcellulose (MC) 103 % of control | dose: 200.0 mg/kg/injection, schedule: Q01DX Z (ip), vehicle: methylcellulose (MC) 95 % of control

CC(=O)OCC1OC(OC2=C(c3ccccc3)C(=O)C(OC3OC(COC(C)=O)C(OC(C)=O)C(OC(C)=O)C3OC(C)=O)=C(c3ccccc3)C2=O)C(OC(C)=O)C(OC(C)=O)C1OC(C)=O (centres undefined)
inactive: dose: 100.0 mg/kg/injection, schedule: Q04DX002 (ip), vehicle: saline with Tween-80 91 % of control | dose: 200.0 mg/kg/injection, schedule: Q04DX002 (ip), vehicle: saline with Tween-80 91 % of control | dose: 400.0 mg/kg/injection, schedule: Q04DX002 (ip), vehicle: saline with Tween-80 95 % of control

CC[n+]1c(C)sc2cc3c(cc21)OCO3
inactive: [14] 102 % of control | dose: 50.0 mg/kg/injection, schedule: Q01DX009 (ip), vehicle: Klucel (hydroxypropylcellulose) (HPC) 103 % of control | dose: 50.0 mg/kg/injection, schedule: Q04DX003 (ip), vehicle: Klucel (hydroxypropylcellulose) (HPC) 107 % of control | dose: 100.0 mg/kg/injection, schedule: Q01DX009 (ip), vehicle: Klucel (hydroxypropylcellulose) (HPC) 96 % of control | [1] 105 % of control and 109 % of control
